Where two headings read alike, the source gives them in different places.
What was measured:
Assay in all cases: biochemical
Design in all cases: DiscoveRx KINOMEscan active site-directed competition binding; percent of control kinase bound to immobilised ligand
[1] = target: T1, IRAK3 (Homo sapiens, UniProt Q9Y616)
T1 sequence (Q9Y616 1-596): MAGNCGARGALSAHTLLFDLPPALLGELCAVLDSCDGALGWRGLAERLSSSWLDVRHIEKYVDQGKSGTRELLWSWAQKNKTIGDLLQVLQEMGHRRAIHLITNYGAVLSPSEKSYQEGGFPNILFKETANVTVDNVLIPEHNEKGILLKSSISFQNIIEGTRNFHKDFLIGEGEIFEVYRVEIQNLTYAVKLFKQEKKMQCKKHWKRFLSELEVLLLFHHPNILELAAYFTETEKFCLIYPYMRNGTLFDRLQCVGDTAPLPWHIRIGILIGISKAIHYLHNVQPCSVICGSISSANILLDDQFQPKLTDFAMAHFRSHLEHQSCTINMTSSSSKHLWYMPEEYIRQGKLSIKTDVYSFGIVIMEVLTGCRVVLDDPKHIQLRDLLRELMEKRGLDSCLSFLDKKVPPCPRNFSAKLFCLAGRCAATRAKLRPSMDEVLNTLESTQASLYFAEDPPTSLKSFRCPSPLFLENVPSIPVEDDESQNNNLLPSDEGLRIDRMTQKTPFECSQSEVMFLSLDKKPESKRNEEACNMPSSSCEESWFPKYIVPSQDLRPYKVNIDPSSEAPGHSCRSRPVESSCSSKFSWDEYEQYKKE

[2] = target: T2, ABL1(T315I)-phosphorylated (Homo sapiens, UniProt P00519, T315I)
T2 construct: phosphorylated

[3] = target: PIM3 (Homo sapiens, UniProt Q86V86)
[4] = target: T3, MAP3K15 (Homo sapiens, UniProt Q6ZN16)
T3 sequence (Q6ZN16 1-1313): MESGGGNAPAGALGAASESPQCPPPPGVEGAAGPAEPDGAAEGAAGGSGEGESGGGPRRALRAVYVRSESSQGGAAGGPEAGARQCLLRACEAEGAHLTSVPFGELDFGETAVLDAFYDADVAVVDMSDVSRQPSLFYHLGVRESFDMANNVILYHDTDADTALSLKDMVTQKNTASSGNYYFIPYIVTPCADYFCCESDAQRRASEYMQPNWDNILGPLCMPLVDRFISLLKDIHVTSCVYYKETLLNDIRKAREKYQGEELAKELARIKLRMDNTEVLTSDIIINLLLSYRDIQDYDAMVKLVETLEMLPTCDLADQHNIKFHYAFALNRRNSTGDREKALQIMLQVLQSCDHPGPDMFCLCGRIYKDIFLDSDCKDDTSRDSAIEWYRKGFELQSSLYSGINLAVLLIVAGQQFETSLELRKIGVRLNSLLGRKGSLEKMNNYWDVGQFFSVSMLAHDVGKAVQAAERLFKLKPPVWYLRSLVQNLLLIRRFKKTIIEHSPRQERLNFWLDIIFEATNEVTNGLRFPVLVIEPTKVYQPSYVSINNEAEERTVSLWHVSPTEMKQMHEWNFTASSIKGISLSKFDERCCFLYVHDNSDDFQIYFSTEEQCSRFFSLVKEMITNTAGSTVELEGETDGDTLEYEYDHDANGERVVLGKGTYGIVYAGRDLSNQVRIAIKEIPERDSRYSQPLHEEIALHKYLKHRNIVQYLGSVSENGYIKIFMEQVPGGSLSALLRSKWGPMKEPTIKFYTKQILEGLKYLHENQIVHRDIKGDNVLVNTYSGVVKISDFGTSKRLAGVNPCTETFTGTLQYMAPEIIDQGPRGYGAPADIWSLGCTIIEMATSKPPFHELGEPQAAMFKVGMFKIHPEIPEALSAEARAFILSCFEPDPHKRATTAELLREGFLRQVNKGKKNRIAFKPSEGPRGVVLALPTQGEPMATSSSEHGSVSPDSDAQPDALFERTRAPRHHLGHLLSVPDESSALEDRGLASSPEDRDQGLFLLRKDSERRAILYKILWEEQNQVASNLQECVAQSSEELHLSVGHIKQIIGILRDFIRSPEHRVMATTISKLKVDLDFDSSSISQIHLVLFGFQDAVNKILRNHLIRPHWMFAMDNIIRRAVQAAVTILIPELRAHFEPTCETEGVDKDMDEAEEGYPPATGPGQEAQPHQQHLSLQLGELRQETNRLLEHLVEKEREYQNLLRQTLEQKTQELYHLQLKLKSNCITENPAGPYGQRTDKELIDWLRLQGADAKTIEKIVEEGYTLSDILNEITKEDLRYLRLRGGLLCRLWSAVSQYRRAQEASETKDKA

[5] = target: T4, GRK2 (Homo sapiens, UniProt P25098)
T4 sequence (P25098 1-689): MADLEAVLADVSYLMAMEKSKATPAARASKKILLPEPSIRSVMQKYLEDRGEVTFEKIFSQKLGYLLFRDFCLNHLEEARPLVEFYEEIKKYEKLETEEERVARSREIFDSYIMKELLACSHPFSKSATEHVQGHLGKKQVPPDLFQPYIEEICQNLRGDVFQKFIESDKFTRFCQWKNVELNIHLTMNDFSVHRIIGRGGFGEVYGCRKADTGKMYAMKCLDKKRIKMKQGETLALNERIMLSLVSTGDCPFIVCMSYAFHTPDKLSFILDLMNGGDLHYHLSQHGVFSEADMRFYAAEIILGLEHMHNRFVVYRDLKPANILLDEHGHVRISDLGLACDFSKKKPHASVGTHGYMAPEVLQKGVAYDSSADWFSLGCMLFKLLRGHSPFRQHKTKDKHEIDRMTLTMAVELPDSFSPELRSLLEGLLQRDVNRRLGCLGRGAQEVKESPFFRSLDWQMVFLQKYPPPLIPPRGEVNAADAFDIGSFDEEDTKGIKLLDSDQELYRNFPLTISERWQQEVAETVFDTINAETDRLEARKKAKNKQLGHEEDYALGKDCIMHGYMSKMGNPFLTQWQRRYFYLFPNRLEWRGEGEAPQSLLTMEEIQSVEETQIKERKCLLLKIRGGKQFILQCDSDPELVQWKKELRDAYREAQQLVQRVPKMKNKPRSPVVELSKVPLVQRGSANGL

[6] = read-out: Niraparib (MK-4827) / %Ctrl @ 10000nM
[7] = read-out: Olaparib / %Ctrl @ 10000nM
[8] = read-out: Rucaparib / %Ctrl @ 10000nM, binding competition, % of control
[9] = read-out: Talazoparib (BMN 673) / %Ctrl @ 10000nM

SMILES: NC(=O)c1cccc2cn(-c3ccc([C@@H]4CCCNC4)cc3)nc12 [Niraparib]
- percent of control binding at 10 µM [1, 6]: 90%
- percent of control binding at 10 µM [2, 6]: 95%
- percent of control binding at 10 µM [3, 6]: 17%
- percent of control binding at 10 µM [4, 6]: 64%
- percent of control binding at 10 µM [5, 6]: 97%

SMILES: O=C(c1cc(Cc2n[nH]c(=O)c3ccccc23)ccc1F)N1CCN(C(=O)C2CC2)CC1 [Olaparib]
- percent of control binding at 10 µM [1, 7]: 82%
- percent of control binding at 10 µM [2, 7]: 87%
- percent of control binding at 10 µM [3, 7]: 99%
- percent of control binding at 10 µM [4, 7]: 100%
- percent of control binding at 10 µM [5, 7]: 79%

SMILES: CNCc1ccc(-c2[nH]c3cc(F)cc4c3c2CCNC4=O)cc1 [Rucaparib]
- percent of control binding at 10 µM [1, 8]: 86%
- percent of control binding at 10 µM [2, 8]: 67%
- percent of control binding at 10 µM [4, 8]: 73%
- percent of control binding at 10 µM [5, 8]: 70%

SMILES: Cn1ncnc1[C@H]1c2n[nH]c(=O)c3cc(F)cc(c23)N[C@@H]1c1ccc(F)cc1 [Talazoparib]
- percent of control binding at 10 µM [1, 9]: 100%
- percent of control binding at 10 µM [2, 9]: 100%
- percent of control binding at 10 µM [3, 9]: 100%
- percent of control binding at 10 µM [4, 9]: 100%
- percent of control binding at 10 µM [5, 9]: 100%
